Data taken from ChEMBL document CHEMBL4419162, “FMO3 inhibitors for treating pain” (2013).
Active and inactive are the calls of the source.

Columns and labels:
[1] = tested on: Rattus norvegicus; assay: (§1) Antinociceptive activity in Sprague-Dawley rat model of chronic constriction injury-induced mono-neuropathic pain assessed as reduction in mechanical allodynia by measuring paw withdrawal threshold at 20 mg/kg, po administered as single dose and measured 30 mins to 24 hrs post dose by Von Frey's hairs assay; format: functional, organism-based
[2] = tested on: Rattus norvegicus; assay: Antinociceptive activity in Sprague-Dawley rat model of CFA-induced chronic inflammatory pain assessed as reduction in mechanical allodynia by measuring paw withdrawal threshold at 20 mg/kg, po administered as single dose and measured 30 mins to 24 hrs post dose by Von Frey's hairs assay; format: functional, organism-based
[3] = tested on: Rattus norvegicus; assay: Antinociceptive activity in Sprague-Dawley rat model of CFA-induced chronic inflammatory pain assessed as reduction in mechanical allodynia by measuring paw withdrawal threshold at 2 mg/kg, po administered as single dose and measured 30 mins to 24 hrs post dose by Von Frey's hairs assay; format: functional, organism-based
[4] = tested on: Rattus norvegicus; assay: as §1, with “2” for “20”; format: functional, organism-based
[5] = tested on: Rattus norvegicus; assay: as §1, with “60” for “20”; format: functional, organism-based
[6] = tested on: Rattus norvegicus; assay: Antinociceptive activity in Sprague-Dawley rat model of CFA-induced chronic inflammatory pain assessed as reduction in mechanical allodynia by measuring paw withdrawal threshold at 50 mg/kg, po administered as single dose and measured 30 mins to 24 hrs post dose by Von Frey's hairs assay; format: functional, organism-based
[7] = tested on: Rattus norvegicus; assay: as §1, with “50” for “20”; format: functional, organism-based
[8] = tested on: Rattus norvegicus; assay: Antinociceptive activity in Sprague-Dawley rat model of CFA-induced chronic inflammatory pain assessed as reduction in mechanical allodynia by measuring paw withdrawal threshold at 500 mg/kg, po administered as single dose and measured 30 mins to 24 hrs post dose by Von Frey's hairs assay; format: functional, organism-based
[9] = tested on: Rattus norvegicus; assay: as §1, with “500” for “20”; format: functional, organism-based
[10] = tested on: Rattus norvegicus; assay: Antinociceptive activity in Sprague-Dawley rat model of CFA-induced chronic inflammatory pain assessed as reduction in mechanical allodynia by measuring paw withdrawal threshold at 10 mg/kg, po administered as single dose and measured 30 mins to 24 hrs post dose by Von Frey's hairs assay; format: functional, organism-based
[11] = target: 3',5'-cyclic-AMP phosphodiesterase 4D (Homo sapiens, UniProt Q08499); assay: Inhibition of human PDE4D catalytic domain using [3H]-cAMP or [3H]-cGMP incubated for 30 mins by scintillation counting method
[12] = tested on: Rattus norvegicus; assay: Antinociceptive activity in Sprague-Dawley rat model of CFA-induced chronic inflammatory pain assessed as reduction in mechanical allodynia by measuring paw withdrawal threshold at 3 mg/kg, po administered as single dose and measured 30 mins to 24 hrs post dose by Von Frey's hairs assay; format: functional, organism-based
[13] = tested on: Rattus norvegicus; assay: as §1, with “3” for “20”; format: functional, organism-based
[14] = tested on: Rattus norvegicus; assay: Antinociceptive activity in Sprague-Dawley rat model of CFA-induced chronic inflammatory pain assessed as reduction in mechanical allodynia by measuring paw withdrawal threshold at 1.8 mg/kg, po administered as single dose and measured 30 mins to 24 hrs post dose by Von Frey's hairs assay; format: functional, organism-based
[15] = tested on: Rattus norvegicus; assay: as §1, with “1.8” for “20”; format: functional, organism-based
[16] = tested on: Rattus norvegicus; assay: Antinociceptive activity in Sprague-Dawley rat model of CFA-induced chronic inflammatory pain assessed as reduction in mechanical allodynia by measuring paw withdrawal threshold at 60 mg/kg, po administered as single dose and measured 30 mins to 24 hrs post dose by Von Frey's hairs assay; format: functional, organism-based
[17] = tested on: Rattus norvegicus; assay: Antinociceptive activity in Sprague-Dawley rat model of CFA-induced chronic inflammatory pain assessed as reduction in mechanical allodynia by measuring paw withdrawal threshold at 200 mg/kg, po administered as single dose and measured 30 mins to 24 hrs post dose by Von Frey's hairs assay; format: functional, organism-based
[18] = tested on: Rattus norvegicus; assay: as §1, with “200” for “20”; format: functional, organism-based

Sequence of 3',5'-cyclic-AMP phosphodiesterase 4D (Q08499 whole entry, the tested form may be a part): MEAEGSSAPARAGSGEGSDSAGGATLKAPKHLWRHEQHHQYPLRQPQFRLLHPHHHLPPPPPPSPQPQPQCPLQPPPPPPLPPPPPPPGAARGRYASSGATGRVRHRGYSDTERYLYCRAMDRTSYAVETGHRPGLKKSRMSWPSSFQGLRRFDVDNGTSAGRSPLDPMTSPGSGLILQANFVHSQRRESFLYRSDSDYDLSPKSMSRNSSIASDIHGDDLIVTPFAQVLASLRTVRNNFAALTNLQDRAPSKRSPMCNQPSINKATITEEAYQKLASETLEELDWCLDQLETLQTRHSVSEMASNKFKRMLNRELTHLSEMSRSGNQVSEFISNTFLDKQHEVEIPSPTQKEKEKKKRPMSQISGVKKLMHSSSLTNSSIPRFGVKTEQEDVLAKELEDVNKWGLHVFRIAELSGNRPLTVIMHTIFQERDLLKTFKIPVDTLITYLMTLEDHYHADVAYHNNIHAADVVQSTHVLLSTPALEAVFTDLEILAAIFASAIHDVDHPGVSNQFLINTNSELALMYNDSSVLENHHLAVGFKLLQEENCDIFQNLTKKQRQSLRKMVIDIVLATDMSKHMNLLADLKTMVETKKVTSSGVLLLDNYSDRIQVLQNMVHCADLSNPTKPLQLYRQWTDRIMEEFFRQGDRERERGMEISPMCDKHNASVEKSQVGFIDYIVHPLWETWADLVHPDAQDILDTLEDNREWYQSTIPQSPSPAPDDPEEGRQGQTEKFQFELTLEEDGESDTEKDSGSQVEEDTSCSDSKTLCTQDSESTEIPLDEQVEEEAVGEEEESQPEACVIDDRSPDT

Nc1ncnc2c1ncn2CCOCP(=O)(O)O
Activity [1]: Active
Activity [2]: Active
Activity [3]: Active
Activity [4]: Active

CC(C)C[C@H](CN)CC(=O)O
Activity [5]: Active

COc1cc(-c2ccc(=O)[nH]n2)ccc1OC(F)F
Activity [1]: Active
Activity [2]: Active

C[C@H](Cn1cnc2c(N)ncnc21)OCP(=O)(O)O
Activity [6]: Active
Activity [7]: Active
Activity [8]: Active
Activity [9]: Active

COc1ccc2c(c1)c(CC(=O)O)c(C)n2C(=O)c1ccc(Cl)cc1
Activity [10]: Active

COc1cc2c(cc1OC)[C@@H]1CN(C)CC[C@@H]1N=C2c1ccc(NS(=O)(=O)c2ccc(C)cc2)cc1
IC50 [11]: 30 nM

COc1ccc([C@]2(C#N)CC[C@@H](C(=O)O)CC2)cc1OC1CCCC1
Activity [12]: Active
Activity [13]: Active

O=C(Nc1c(Cl)cncc1Cl)c1ccc(OC(F)F)c(OCC2CC2)c1
Activity [14]: Active
Activity [15]: Active

COc1cc(Nc2c(C#N)cnc3cc(OCCCN4CCN(C)CC4)c(OC)cc23)c(Cl)cc1Cl
Activity [16]: Active
Activity [17]: Active
Activity [18]: Active
Activity [5]: Active
